The values below come from patent EP4458977A1, “SELF-ASSEMBLING PEPTIDE AMPHIPHILES AS RETROVIRAL TRANSDUCTION ENHANCERS” (Max-Planck-Gesellschaft zur Förderung der Wissenschaften …, priority 2023, dated 2024).

Data set [1] is described as follows: TEM of peptide assemblies (fibril formation / assembly). Format: physicochemical. Particulars: for TEM morphology (in words): 1 mg/mL in PBS. As to the method:
The peptides were predissolved in DMSO to a concentration of 10 mg/mL. The fibril formation was induced by further diluting the solution to a final incubation concentration of 650 µM or 1 mg/mL in PBS as indicated in the text and incubated for 1 d (1 day) at rt (room temperature, 20 °C - 25 °C). Other concentrations as described herein were achieved by further dilution of preformed fibrils.
(§1) Transmission electron microscopy (TEM) measurements, Thioflavin (ThT), zeta-potential measurements for fibril characterization were prepared and conducted according to prior art procedures. […] Fibrils were defined as distinct, if no visible structures could be identified in fluorescence and brightfield microscopy.

Data set [2] can be described thus: Fluorescence microscopy of ThT-stained fibrils (µm-sized aggregates). Format: physicochemical. As to conditions: 1 mg/mL stained with 50 µM ThT. As to the method:
as §1
Fluorescence microscopy: 1 µL Fibrils (1 mg mL^-1) were stained with 9 µL, 50 µM ThT. 10 µL of the stained fibrils (0.1 mg mL^-1) were placed on a microscopy glass. Fluorescence microscopy measurements were performed on a Leica DMi8 microscope with 10x air objective and equipped with a Leica MC170 HD camera with a filter setting λem = 527/30 nm upon excitation at λex = 480/40 nm) and processed with the Leica LASX software.

Data set [3] is described as follows: ATR-FT-IR determination of β-sheet content. The format is physicochemical. As to conditions: 1 mg/mL in PBS lyophilized; integral at 1630 cm^-1 relative to 1650-1700 cm^-1. As to the method: ATR-FT-IR: ATR-IR spectra acquisition and the calculation of β-sheet content were conducted according prior art procedures. Briefly, FT-IR spectra of solid samples were recorded after lyophilization of fibril solutions using a Bruker Tensor II spectrometer equipped with a diamond crystal as ATR element with a spectral resolution of 2 cm^-1, each spectrum was an average of 64 scans. The data was processed with Origin software. β-sheet amount was determined by calculating the integral of the peak at 1630 cm-1 (β-sheet) relative to the integral between 1650-1700 cm-1 (native structure) from the 2nd derivative of the FT-IR spectra.

For another data set, the system named is HIV-1. Particulars: for enhancement of HIV-1 infection / transduction (in words): 6.5 µM, 1.3 µM, 0.26 µM.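 On all read-outs here: TZM-bl reporter cells exposed to HIV-1 with peptide fibrils, infection read out as β-galactosidase luminescence, compared with virus alone.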
A further data set has as its system HeLa cells. Nature of the data set: Confocal laser scanning microscopy and degradation study with PA library and HeLa cells. Format: cell-based. Particulars: 2 µg added to 20.000 HeLa cells, 30 min. The method, then:
In general, the procedure for determine whether a PA is degraded or not, is conducted by confocal laser scanning microscopy of Proteostat stained PAs which are added to Hela cells (2 µg peptide added to 20.000 cells). Microscopy is conducted at day 0 (d0, after 30 min of incubation) and at day 3 (d3, after 72 h of incubation). The number of aggregates >10 µm^2 is counted via 3D object counter in imaged in an area of 1008 µm × 1008 µm.
A PA is considered to be degradable if the number and the size of aggregates are reduced after 3 days. The efficiency is determined by the percentual degradation (aggregate number at d3 / aggregate number at d0). For the number of aggregation three technical replicates were evaluated for each sample. A large deviation represents a nonhomogeneous spatial distribution of aggregates.
Confocal laser scanning microscopy and degradation study with PA library and HeLa cells: Confocal laser scanning microscopy studies were performed for the visualization of the cell-PA interaction. HeLa cells were seeded one day prior to conducting the assay (20,000/well) in an 8-well IBIDI slide. […] The nucleus of the HeLa cells was stained with Hoechst 33342 (NucBlue™, Thermo Fisher Scientific). The peptide solution mixture was transferred to the HeLa cells and incubated for 30 min at 37°C before washing three times with PBS. […] For the evaluation of aggregate degradation, the samples were further incubated at 37°C for 3 d and analyzed without any additional washing step. […] The number of aggregates were determined by counting aggregates larger than the threshold 10 µm^2 in an area of 1008 × 1008 µm and repeated in three technical triplicates.

Where a SMILES comes first, the peptide text is derived from it. Where no end group is shown, it is not given here. [ ]: non-standard residue; d: D form. The star is where a group is joined. Palmitoyl = CCCCCCCCCCCCCCCC(=O)*

Description for HIV-1: HIV-1 Infection Assay with TZM-bl cells: The effect of peptide fibrils on HIV-1 infection was studied via a luminescence assay for β-galactosidase, which was reported by TZM-bl cells upon infection. The HIV-1 infection assay was conducted in three technical replicates and repeated in three independent experiments unless stated otherwise.

As for WEALKK-NH2 [Pat36, WEALKK-NH2], the “TEM morphology (in words)” value in data set [1] is reported as “no fibrillar morphologies but amorphous aggregates”. Besides, the “fluorescent, µm-sized aggregates (ThT staining)” value (from here on “fluorescent, µm-sized aggregates”) in data set [2] is listed as “no fluorescent, µm-sized aggregates”. The β-sheet amount in data set [3] is reported as 31%. For the same compound, in the data set on HIV-1, the “infectivity enhancement at 1.3 µM concentration compared to virus only infection (in words)” value is recorded as “cannot enhance infectivity”.

As to `CCCCCCCCCCCCCCCC(=O)N[C@@H](CCCNC(=N)N)C(=O)N[C@@H](CCCNC(=N)N)C(=O)N[C@@H](Cc1c[nH]c2ccccc12)C(=O)N[C@@H](CCC(N)=O)C(=O)N[C@@H](Cc1c[nH]c2ccccc12)C(=O)N[C@@H](CCCNC(=N)N)C(N)=O` [Pat22, C16-RRWQWR-NH2] (Palmitoyl-RRWQWR-NH2), the “TEM morphology (in words)” value in data set [1] is “fibrillar morphologies”. For the same compound, the “Assembly without hydrophob residue” value in data set [1] (corresponding peptide without hydrophobic moiety) is reported as “No”. Further, the Assembly entry in data set [1] (peptide amphiphile) is “Yes”. Besides, in the data set with HeLa cells, the “association with cellular membranes” value is “no association with cellular membranes”. In data set [3], this compound returned a β-sheet amount of 0%. Besides, in the data set with HIV-1, the “infectivity enhancement at 1.3 µM concentration compared to virus only infection (in words)” value is “does not enhance infectivity” and the “enhancement of HIV-1 infection / transduction (in words)” value is given as “no infectivity enhancement can be observed”. Moreover, the “Infectivity enhancing N fold at 1.3 µM” value in the data set on HIV-1 (relative to virus only) is reported as 0±0 N fold.

Regarding ALAAGKK-NH2 [Pat39, ALAAGKK-NH2], the “TEM morphology (in words)” value in data set [1] is on record as “no fibrillar morphologies”. For the same compound, in data set [2], the “fluorescent, µm-sized aggregates” value is “no fluorescent, µm-sized aggregates”. This compound also registered a β-sheet amount in data set [3] of 0%. Further, the “infectivity enhancement at 1.3 µM concentration compared to virus only infection (in words)” value with HIV-1 is listed as “cannot enhance infectivity”.

Consider RRWQWR-NH2 [Pat41, RRWQWR-NH2], for which the “TEM morphology (in words)” value in data set [1] is reported as “amorphous aggregates”. Besides, in the data set with HeLa cells, the “association with cellular membranes” value is given as “no association with cellular membranes”. In data set [3], this compound had a β-sheet amount of 0%. In the data set on HIV-1, the “infectivity enhancement at 1.3 µM concentration compared to virus only infection (in words)” value is recorded as “cannot enhance infectivity”.

Turning to GKVGSK-NH2 [Pat49, GKVGSK-NH2], the “TEM morphology (in words)” value in data set [1] was “no fibrillar morphologies”. Further, in data set [2], the “fluorescent, µm-sized aggregates” value is “no fluorescent, µm-sized aggregates”. This compound also had a β-sheet amount in data set [3] of 4%. Further, the “enhancement of HIV-1 infection / transduction (in words)” value with HIV-1 is “not potent enhancers of HIV-1 infection”.

For KYIHQNYTKALAGKLV-NH2 [Pat45], the “TEM morphology (in words)” value in data set [1] is listed as “no fibrillar morphologies”. In addition, the “fluorescent, µm-sized aggregates” value in data set [2] is listed as “no fluorescent, µm-sized aggregates”. In data set [3], the β-sheet amount was found to be 34%. Besides, the “enhancement of HIV-1 infection / transduction (in words)” value in the data set with HIV-1 is reported as “not potent enhancers of HIV-1 infection”.

VVAAHHH-NH2 [Pat43, VVAAHHH-NH2]: the “TEM morphology (in words)” value in data set [1] is given as “no fibrillar morphologies”. Besides, the “fluorescent, µm-sized aggregates” value in data set [2] is given as “no fluorescent, µm-sized aggregates”. In addition, in data set [3], the β-sheet amount was 0%. The “enhancement of HIV-1 infection / transduction (in words)” value in the data set with HIV-1 is given as “not potent enhancers of HIV-1 infection”.

In the case of LLLKK-NH2 [Pat42, LLLKK-NH2], the “TEM morphology (in words)” value in data set [1] was “no fibrillar morphologies”. Further, the “fluorescent, µm-sized aggregates” value in data set [2] is “no fluorescent, µm-sized aggregates”. In data set [3], the β-sheet amount worked out at 33%. For the same compound, in the data set on HIV-1, the “infectivity enhancement at 1.3 µM concentration compared to virus only infection (in words)” value was “cannot enhance infectivity”.

AKAVGK-NH2 [Pat50, AKAVGK-NH2]: the “TEM morphology (in words)” value in data set [1] is given as “no fibrillar morphologies but amorphous aggregates”. Further, in data set [2], the “fluorescent, µm-sized aggregates” value is reported as “no fluorescent, µm-sized aggregates”. In data set [3], this compound displayed a β-sheet amount of 33%. The “infectivity enhancement at 1.3 µM concentration compared to virus only infection (in words)” value in the data set with HIV-1 is given as “cannot enhance infectivity”.

Regarding KIISFK-NH2 [Pat51, KIISFK-NH2], the “TEM morphology (in words)” value in data set [1] is on record as “no fibrillar morphologies”. Besides, the “fluorescent, µm-sized aggregates” value in data set [2] was “no fluorescent, µm-sized aggregates”. Besides, in data set [3], the β-sheet amount was found to be 38%. The “enhancement of HIV-1 infection / transduction (in words)” value in the data set with HIV-1 is listed as “not potent enhancers of HIV-1 infection”.

Regarding LNGGVKK-NH2 [Pat38, LNGGVKK-NH2], the “TEM morphology (in words)” value in data set [1] is listed as “no fibrillar morphologies”. Also, in data set [2], the “fluorescent, µm-sized aggregates” value is “no fluorescent, µm-sized aggregates”. Further, the β-sheet amount in data set [3] is on record as 0%. In the data set on HIV-1, the “enhancement of HIV-1 infection / transduction (in words)” value is “not potent enhancers of HIV-1 infection”.

Take AVAKKK-NH2 [Pat40, AVAKKK-NH2]: in data set [1], the “TEM morphology (in words)” value is listed as “no fibrillar morphologies but amorphous aggregates”. For the same compound, the “fluorescent, µm-sized aggregates” value in data set [2] was “no fluorescent, µm-sized aggregates”. In addition, the β-sheet amount in data set [3] came to 29%. Also, the “infectivity enhancement at 1.3 µM concentration compared to virus only infection (in words)” value in the data set with HIV-1 is “cannot enhance infectivity”.

As for GGGSSKKK-NH2 [Pat47], in data set [1], the “TEM morphology (in words)” value is “no fibrillar morphologies”. In data set [2], the “fluorescent, µm-sized aggregates” value is recorded as “no fluorescent, µm-sized aggregates”. The β-sheet amount in data set [3] came to 10%. Also, the “enhancement of HIV-1 infection / transduction (in words)” value with HIV-1 was “not potent enhancers of HIV-1 infection”.

With AQAKAK-NH2 [Pat35, AQAKAK-NH2], in data set [1], the “TEM morphology (in words)” value is “no fibrillar morphologies but amorphous aggregates”. Besides, in data set [2], the “fluorescent, µm-sized aggregates” value is reported as “no fluorescent, µm-sized aggregates”. Moreover, the β-sheet amount in data set [3] was found to be 29%. Further, the “infectivity enhancement at 1.3 µM concentration compared to virus only infection (in words)” value in the data set on HIV-1 is listed as “cannot enhance infectivity”.

With KGVPGVGK-NH2 [Pat44], the results for the “TEM morphology (in words)” value in data set [1] and in data set [1] (listed as KGVPGVGK) were “fibrillar morphologies” and “unexpectedly forming fibrils by themselves”, respectively. This compound yielded a β-sheet amount in data set [3] of 22%. Besides, in the data set on HIV-1, the “infectivity enhancement at 1.3 µM concentration compared to virus only infection (in words)” value is given as “do not enhance infectivity”.

IIQKIK-NH2 [Pat34, IIQKIK-NH2]: the “TEM morphology (in words)” value in data set [1] is recorded as “no fibrillar morphologies”. Besides, the “fluorescent, µm-sized aggregates” value in data set [2] was “no fluorescent, µm-sized aggregates”. This compound yielded a β-sheet amount in data set [3] of 31%. In the data set on HIV-1, the “enhancement of HIV-1 infection / transduction (in words)” value was “not potent enhancers of HIV-1 infection”.

Turning to `CC(C)[C@@H](N)C(=O)N[C@@H](C(=O)N[C@@H](C(=O)N[C@H](C)C(=O)N[C@H](C)C(=O)N[C@H](C)C(=O)N[C@H](CCCCN)C(=O)N[C@H](CCCCN)C(=O)N[C@H](CCCCN)C(N)=O)C(C)C)C(C)C` [Pat33, vvvaaakkk-NH2] (H-[dV][dV][dV][dA][dA][dA][dK][dK][dK]-NH2), the “TEM morphology (in words)” value in data set [1] is listed as “no fibrillar morphologies but amorphous aggregates”. The “fluorescent, µm-sized aggregates” value in data set [2] is listed as “no fluorescent, µm-sized aggregates”. The compound further registered a β-sheet amount in data set [3] of 45%. In addition, the “infectivity enhancement at 1.3 µM concentration compared to virus only infection (in words)” value in the data set on HIV-1 is on record as “cannot enhance infectivity”.

Turning to AGGRVK-NH2 [Pat37, AGGRVK-NH2], the “TEM morphology (in words)” value in data set [1] is “no fibrillar morphologies”. For the same compound, in data set [2], the “fluorescent, µm-sized aggregates” value is recorded as “no fluorescent, µm-sized aggregates”. In addition, in data set [3], the β-sheet amount was 0%. Also, in the data set on HIV-1, the “infectivity enhancement at 1.3 µM concentration compared to virus only infection (in words)” value is recorded as “cannot enhance infectivity”.
